Results: patent US9340542B2, “Propellane-based compounds and the use thereof” (Purdue Pharma L.P., priority 2013, dated 2016)
Where two headings read alike, the source gives them in different places.

Experiments:
κ opioid receptor [1] = target: T1, κ opioid receptor (Homo sapiens (Human), UniProt P41145); assay: κ-opioid receptor radioligand dose-displacement binding assay ([3H]-U69,593); settings: binding affinity
Protocol: Membranes from HEK-293 cells, CHO or U-2 OS cells expressing the recombinant human κ opioid receptor (κ) were prepared by lysing cells in ice cold hypotonic buffer (2.5 mM MgCl2, 50 mM HEPES, pH 7.4) (10 mL/10 cm dish) followed by homogenization with a tissue grinder/Teflon pestle. Membranes were collected by centrifugation at 30,000×g for 15 min at 4° C. and pellets were resuspended in hypotonic buffer to a final concentration of 1-3 mg/mL. Protein concentrations were determined using the BioRad protein assay reagent with bovine serum albumen as standard. Aliquots of κ receptor membranes were stored at −80° C.
Radioligand dose displacement assays used 0.4 nM [^3H]-U69,593 (GE Healthcare, Piscataway, N.J.; 40 Ci/mmole) with 15 μg membrane protein (recombinant κ opioid receptor expressed in HEK 293 cells; in-house prep) in a final volume of 200 μl binding buffer (5% DMSO, 50 mM Trizma base, pH 7.4). Non-specific binding was determined in the presence of 10 μM unlabeled naloxone or U69,593. All reactions were performed in 96-well polypropylene plates for 1 hour at a temperature of about 25° C. Binding reactions were terminated by rapid filtration onto 96-well Unifilter GF/C filter plates (Perkin Elmer, Shelton, Conn.) presoaked in 0.5% polyethylenimine (Sigma). Harvesting was performed using a 96-well tissue harvester (Perkin Elmer, Shelton, Conn.) followed by five filtration washes with 200 μl ice-cold binding buffer. Filter plates were subsequently dried at 50° C. for 1-2 hours. Fifty μl/well scintillation cocktail (Perkin Elmer, Shelton, Conn.) was added and plates were counted in a Packard Top-Count for 1 min/well.
(§1) In TABLE 1, binding affinity of certain Compounds of the Invention to the μ- and κ-opioid receptors was determined as described above.

μ-opioid receptor [2] = target: T2, μ-opioid receptor (Homo sapiens (Human), UniProt P35372); assay: μ-opioid receptor radioligand dose-displacement binding assay ([3H]-diprenorphine); settings: binding affinity
Protocol: Radioligand dose-displacement binding assays for μ-opioid receptors used 0.3 nM [^3H]-diprenorphine (Perkin Elmer, Shelton, Conn.), with […] membrane protein/well in a final volume of 500 μl binding buffer (10 mM MgCl2, 1 mM EDTA, 5% DMSO, 50 mM HEPES, pH 7.4). Reactions were carried out in the absence or presence of increasing concentrations of unlabeled naloxone. All reactions were conducted in 96-deep well polypropylene plates for 2 hours at room temperature. Binding reactions were terminated by rapid filtration onto 96-well Unifilter GF/C filter plates (Perkin Elmer, Shelton, Conn.), presoaked in 0.5% polyethylenimine using a 96-well tissue harvester (Perkin Elmer, Shelton, Conn.) followed by performing three filtration washes with 500 μl of ice-cold binding buffer. Filter plates were subsequently dried at 50° C. for 2-3 hours. BetaScint scintillation cocktail (Perkin Elmer, Shelton, Conn.) was added (50 μl/well), and plates were counted using a Packard Top-Count for 1 min/well. The data were analyzed using the one-site competition curve fitting functions in GraphPad PRISM™ v. 3.0 or higher (San Diego, Calif.), or an in-house function for one-site competition curve-fitting.
as §1

κ opioid receptor [3] = target: T1, κ opioid receptor; assay: κ-opioid receptor [35S]GTPγS functional assay; format: biochemical; settings: for EC50: GTPγS functional assay using U-2 OS cells; for Emax: maximal effect relative to U69,593, U-2 OS cells
Protocol: Functional [^35S]GTPγS binding assays were conducted as follows. κ opioid receptor membrane solution was prepared by sequentially adding final concentrations of 0.026 μg/μl κ membrane protein (in-house), 10 μg/mL saponin, 3 μM GDP and 0.20 nM [^35S]GTPγS to binding buffer (100 mM NaCl, 10 mM MgCl2, 20 mM HEPES, pH 7.4) on ice. The prepared membrane solution (190 μl/well) was transferred to 96-shallow well polypropylene plates containing 10 μl of 20× concentrated stock solutions of agonist prepared in DMSO. Plates were incubated for 30 min at a temperature of about 25° C. with shaking. Reactions were terminated by rapid filtration onto 96-well Unifilter GF/B filter plates (Perkin Elmer, Shelton, Conn.) using a 96-well tissue harvester (Packard) and followed by three filtration washes with 200 μl ice-cold binding buffer (10 mM NaH2PO4, 10 mM Na2HPO4, pH 7.4). Filter plates were subsequently dried at 50° C. for 2-3 hours. Fifty μl/well scintillation cocktail (Perkin Elmer, Shelton, Conn.) was added and plates were counted in a Packard Top-Count for 1 min/well.
κ GTP EC50 is the concentration of a compound providing 50% of the maximal response for the compound at a κ receptor.
κ GTP Emax (%) is the maximal effect elicited by a compound relative to the effect elicited by U69,593.
(§2) In TABLE 2, activity response of certain Compounds of the Invention to the μ- and κ-opioid receptors was determined as described above for functional assays using U-2 OS cells.

μ-opioid receptor [4] = target: T2, μ-opioid receptor; assay: μ-opioid receptor [35S]GTPγS functional assay; format: biochemical; settings: for EC50: GTPγS functional assay using U-2 OS cells; for Emax: maximal effect relative to DAMGO, U-2 OS cells
Protocol: [^35S]GTPγS functional assays were conducted using freshly thawed p-receptor membranes prepared in-house from a cell line expressing recombinant μ opioid receptor in a HEK-293, CHO or U-2 OS cell background, or purchased from a commercial source (Perkin Elmer, Shelton. Conn.; or DiscovRx, Fremont, Calif.). Assay reactions were prepared by sequentially adding the following reagents to binding buffer (100 mM NaCl, 10 mM MgCl2, 20 mM HEPES, pH 7.4) on ice (final concentrations indicated): membrane protein ([…]), saponin ([…]), GDP ([…]) and [^35S]GTPγS (0.20 nM; Perkin Elmer, Shelton, Conn.). The prepared membrane solution (190 μl/well) was transferred to 96-shallow well polypropylene plates containing 10 μl of 20× concentrated stock solutions of the agonist [D-Ala^2, N-methyl-Phe^4 Gly-ol^5]-enkephalin (DAMGO) prepared in dimethyl sulfoxide (DMSO). Plates were incubated for 30 min at about 25° C. with shaking. Reactions were terminated by rapid filtration onto 96-well Unifilter GF/B filter plates (Perkin Elmer, Shelton, Conn.) using a 96-well tissue harvester (Perkin Elmer, Shelton, Conn.) followed by three filtration washes with 200 μl of ice-cold wash buffer (10 mM NaH2PO4, 10 mM Na2HPO4, pH 7.4). Filter plates were subsequently dried at 50° C. for 2-3 hours. BetaScint scintillation cocktail (Perkin Elmer, Shelton, Conn.) was added (50 μl/well) and plates were counted using a Packard Top-Count for 1 min/well. Data were analyzed using the sigmoidal dose-response curve fitting functions in GraphPad PRISM v. 3.0, or an in-house function for non-linear, sigmoidal dose-response curve-fitting.
μ GTP EC50 is the concentration of a compound providing 50% of the maximal response for the compound at a […] receptor.
μ GTP Emax (%) is the maximal effect elicited by a compound relative to the effect elicited by DAMGO, a standard μ agonist. Generally, the μ GTP Emax (%) value measures the efficacy of a compound to treat or prevent pain or other Conditions.
as §2

[5] = read-out: Opioid Receptor Ki (nM) μ

| SMILES | Ki (κ opioid receptor [1]) [nM] | Ki (μ-opioid receptor [2]; [5]) [nM] | EC50 (κ opioid receptor [3]) [nM] | Emax (κ opioid receptor [3]) [%] | EC50 (μ-opioid receptor [4]) [nM] | Emax (μ-opioid receptor [4]) [%] | Ki (μ-opioid receptor [2]; read-out: Opioid Receptor Ki μ) [nM] |
| --- | --- | --- | --- | --- | --- | --- | --- |
| COc1ccc2c(c1)[C@]13CCN(CC4CC4)C[C@@]1(C2)Cc1cc(C(N)=O)c(=O)[nH]c1C3 [Compound 6, (5aS,10bR)-14-(cyclopropylmethyl)-9-methoxy-2-oxo-2,5,6,11-tetrahydro-1H-10b,5a-(ethanoiminomethano)indeno[2,1-g]quinoline-3-carboxamide] | 4280 ± 1090 | 15600 |  |  |  |  |  |
| O=C1NC(=O)[C@]2(CC[C@@]34Cc5ccc(O)cc5[C@@]3(CCN(CC3CC3)C4)C2)N1 [Compound 9, (3R,4aR,9aR)-11-(cyclopropylmethyl)-6-hydroxy-1,2,4,9-tetrahydrospiro[4a,9a-(ethanoiminomethano)fluorene-3,4′-imidazolidine]-2′,5′-dione] | 148 ± 25.2 | 676 ± 74.1 | 318.8 ± 1.38 | 109 ± 7.09 | 309 ± 36.3 | 94 ± 3.06 |  |
| COc1ccc2c(c1)[C@]13CCN(CC4CC4)C[C@]1(CC[C@]1(C3)NC(=O)NC1=O)C2 [Compound 3] | 8410 ± 650 |  |  |  |  |  | > 20000 |
| NC(=O)c1cc2c([nH]c1=O)C[C@@]13CCN(CC4CC4)C[C@@]1(Cc1ccc(O)cc13)C2 [Compound 7, (5aS,10bR)-14-(cyclopropylmethyl)-9-hydroxy-2-oxo-2,5,6,11-tetrabydro-1H-10b,5a-(ethanoiminomethano)indeno[2,1-g]quinoline-3-carboxamide] | 148 ± 39.8 | 770 ± 102 | 570 ± 85.4 | 103 ± 5.21 | 412 ± 66.4 | 19.3 ± 3.18 |  |
| COC(=O)c1cc2c([nH]c1=O)C[C@@]13CCN(CC4CC4)C[C@@]1(Cc1ccc(OC)cc13)C2 [Compound 5, (5aS,10bR)-methyl 14-(cyclopropylmethyl)-9-methoxy-2-oxo-2,5,6,11-tetrahydro-1H-10b,5a-(ethanoiminomethano)indeno[2,1-g]quinoline-3-carboxylate] | 3600 ± 882 | 9550 ± 1870 |  |  |  |  |  |
| COc1ccc2c(c1)[C@]13CCN(CC4CC4)C[C@]1(CC[C@@]1(C3)NC(=O)NC1=O)C2 [Compound 2, (3S,4aR,9,aR)-11-(cyclopropylmethyl)-6-methoxy-1,2,4,9-tetrahydrospiro[4a,9a-(ethanoiminomethano)fluorene-3,4′-imidazolidine]-2′,5′-dione] | 4760 ± 1110 | 6250 ± 874 |  |  |  |  |  |
| O=C1NC(=O)[C@@]2(CC[C@@]34Cc5ccc(O)cc5[C@@]3(CCN(CC3CC3)C4)C2)N1 [Compound 8, (3S,4aR,9aR)-11-(cyclopropylmethyl)-6-hydroxy-1,2,4,9-tetrahydrospiro[4a,9a-(ethanoiminomethano)fluorene-3,4′-imidazolidine]-2′,5′-dione] | 72.5 ± 18.3 | 472 ± 93 | 384 ± 36.9 | 119 ± 4.41 | 414 ± 62.8 | 86.7 ± 1.67 |  |
